In PubChem BioAssay (NCI):
Where “and” joins values, the source holds several entries; their conditions need not be identical. Equal values may be shown once.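 Values below derive from 48-hour exposures of cells grown in 96-well plates, with endpoints linearly interpolated between the two concentrations bracketing the appropriate inhibition level. GI50 is the concentration that inhibits growth by half. TGI: concentration producing complete growth inhibition.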

How the values were obtained:
Test in all cases: NCI anticancer screen, dose series, 48 h
MDA-MB-231 breast = tested on: MDA-MB-231 breast
DMS 273 small cell lung = tested on: DMS 273 small cell lung
KM20L2 colon = tested on: KM20L2 colon
RXF-631 renal = tested on: RXF-631 renal
SNB-78 CNS = tested on: SNB-78 CNS
M19-MEL melanoma = tested on: M19-MEL melanoma
DMS 114 small cell lung = tested on: DMS 114 small cell lung
DLD-1 colon = tested on: DLD-1 colon
MDA-N = tested on: MDA-N

Row | Compound | GI50 (MDA-MB-231 breast) | TGI (MDA-MB-231 breast) | TGI (DMS 273 small cell lung) | TGI (KM20L2 colon) | TGI (M19-MEL melanoma) | TGI (DMS 114 small cell lung) | TGI (DLD-1 colon) | also measured
1 | Cn1cc(-c2csc(-c3cn(C)c4ncccc34)n2)c2ccccc21 | 2.82 µM | 37.8 µM | – | – | – | – | – | –
2 | COc1ccc(C=O)c(N(C)C(=O)C(C)(C)C)c1 | – | – | > 100 µM | > 100 µM | > 100 µM | > 100 µM | – | TGI (RXF-631 renal): > 100 µM; TGI (SNB-78 CNS): > 100 µM
3 | c1ccc(CNc2nc(Nc3ccc(-c4nc5ccccc5[nH]4)cc3)c3cn[nH]c3n2)cc1 | 2.11 µM | 4.97 µM | – | – | – | – | – | –
4 | OCCC#Cc1ccccc1C#Cc1ccccc1 | 3.41 µM | 16.1 µM | – | – | – | – | – | –
5 | Cc1cc2c(C)nn(Cc3ccc(Cl)cc3Cl)c2c(C#N)c1C | – | – | > 100 µM | > 100 µM | > 100 µM | – | > 100 µM | TGI (SNB-78 CNS): > 100 µM
6 | COC(=O)C12C3C=CC(O3)C1C1C=CC2O1 (stereo not given) | – | – | > 100 µM | > 100 µM | > 100 µM | – | > 100 µM | –
7 | CC(=O)OCC1OC(n2cnc3c(I)nc(I)nc32)C(OC(C)=O)C1OC(C)=O (stereo not given) | – | – | 20.2 µM | 32.7 µM | 12.2 µM | 13.1 µM | 24.2 µM | TGI (RXF-631 renal): 34.9 µM
8 | S=c1nc(/C=C/c2ccc(Cl)c(Cl)c2)[nH][nH]1 | 79 µM | > 100 µM | > 100 µM | > 100 µM | – | 0.12 µM | > 100 µM | –
9 | CCCCCNC(=O)C1C(=O)N(CCCCC)C(=O)/C1=N\N (stereo not given) | – | – | – | > 100 µM | > 100 µM | – | > 100 µM | TGI (SNB-78 CNS): 60 µM
10 | O=C(NCCS(=O)(=O)N1C(=O)C2CCCN2C(=O)[C@@H]1Cc1ccccc1)OCc1ccccc1 (stereo not given in full) | – | – | – | > 100 µM | – | 89.2 µM | > 100 µM | TGI (RXF-631 renal): > 100 µM; TGI (SNB-78 CNS): > 100 µM
11 | CCN1N=CSC12C(=O)N(c1ccccc1)C(=O)N2c1ccccc1 (stereo not given) | – | – | – | > 100 µM | – | > 100 µM | > 100 µM | TGI (RXF-631 renal): > 100 µM; TGI (SNB-78 CNS): > 100 µM
12 | COc1ccc(Nc2nc3c(N)cc(C(F)(F)F)cc3nc2-c2ccccc2)cc1 | – | – | > 100 µM | > 100 µM | > 100 µM | > 100 µM | > 100 µM | TGI (RXF-631 renal): > 100 µM; TGI (SNB-78 CNS): > 100 µM
13 | Cc1ccc2c(c1)/C(=N\N=C/c1cn(C(C)C)c3ccccc13)C(=O)N2 | 1.25 µM | 5.83 µM | – | – | – | – | – | –
14 | C[CH2][Sn]([CH2]C)([O]C(=O)c1cc(OC)c(OC)c(OC)c1)[O][Sn]([CH2]C)([CH2]C)[O]C(=O)c1cc(OC)c(OC)c(OC)c1 | – | – | > 100 µM | > 100 µM | > 100 µM | 29.1 µM | > 74.1 µM | GI50 (DLD-1 colon): 27.9 µM; GI50 (DMS 273 small cell lung): 84.5 µM; GI50 (KM20L2 colon): 64.6 µM; GI50 (RXF-631 renal): 24.5 µM; TGI (RXF-631 renal): 53.7 µM; GI50 (SNB-78 CNS): 17 µM; TGI (SNB-78 CNS): 41 µM; GI50 (M19-MEL melanoma): 31.3 µM; GI50 (DMS 114 small cell lung): 15.1 µM
15 | O=C1/C(=C/c2ccccc2Cl)COc2ccccc21 | – | – | 31.6 µM | 38.1 µM | 34.2 µM | 36.2 µM | 29.4 µM | TGI (RXF-631 renal): 36.3 µM; TGI (SNB-78 CNS): 41.3 µM
16 | COC12c3ccccc3-c3ccccc3C1[C@@H](C(=O)O)[C@H]2C(=O)O (stereo not given in full) | – | > 10 µM | – | – | – | – | – | TGI (MDA-N): > 10 µM
17 | CC[C@]12C=CCN3CC[C@]4(C(=C(C(=O)OC)C1)Nc1ccccc14)[C@@H]32 | 3.19 µM | 13.3 µM | – | – | – | – | – | –
18 | O=[N+]([O-])c1ccc([I+]c2ccccc2)cc1 | 2.1 µM | 12.9 µM and 4.9 µM | – | – | – | – | – | TGI (MDA-N): 20.9 µM

Row | Compound | GI50 (MDA-MB-231 breast) | TGI (MDA-MB-231 breast) | TGI (DMS 273 small cell lung) | TGI (KM20L2 colon) | TGI (M19-MEL melanoma) | TGI (DMS 114 small cell lung) | TGI (DLD-1 colon) | also measured
19 | COc1cc(-c2cn(-c3ccc(Cl)cc3)c(=O)n2-c2ccccc2)cc(OC)c1OC | 32.9 µM | > 100 µM | – | – | – | – | – | –
20 | Cn1c(=O)c2c(nc3n2C(CCl)CO3)n(C)c1=O (stereo not given) | – | – | > 100 µM | – | > 100 µM | > 100 µM | > 100 µM | TGI (RXF-631 renal): > 100 µM; TGI (SNB-78 CNS): > 100 µM
21 | COc1cc2c(cc1OCCCN1CCN(CCCOc3cc4c(cc3OC)C(=O)C3CCC[C@H]3C=N4)CC1)N=C[C@@H]1CCCC1C2=O (stereo not given in full) | 8.44 µM | > 26.6 µM | – | – | – | – | – | –
22 | COc1ccc(Br)c(CCCCC(=O)O)c1 | – | – | > 100 µM | > 100 µM | > 100 µM | > 100 µM | > 100 µM | TGI (SNB-78 CNS): > 100 µM
23 | Nc1nccc(C#Cc2cncnc2Nc2ccc(OCc3cccc(F)c3)c(Cl)c2)n1 | 5.56 µM | 13.1 µM | – | – | – | – | – | –
24 | CCN1C(=O)N(CC)C2C1NN=c1s/c(=C\c3ccc([N+](=O)[O-])cc3)c(=O)n12 (stereo not given) | 1.42 µM | > 44.2 µM | – | – | – | – | – | –
25 | O=C1/C(=C\c2ccccc2)CN(C(=O)c2ccccc2F)C/C1=C\c1ccccc1 | 2 µM | 4.06 µM | – | – | – | – | – | –
26 | CNS(=O)(=O)NN(C)S(=O)(=O)c1ccc(C)cc1 | – | – | – | > 100 µM | > 100 µM | > 100 µM | > 100 µM | –
27 | COc1cc(-c2[nH]ncc2CCCC(=O)Nc2ccccc2[N+](=O)[O-])ccc1O | – | – | > 100 µM | – | – | 93.2 µM | > 100 µM | –
28 | CCN=C(N)CSS(=O)(=O)O | – | > 100 µM | – | – | – | – | – | TGI (MDA-N): > 100 µM
29 | Cn1cc(-c2ccc3c(c2)ncn3-c2ccc(CC(=O)Nc3cc(C(C)(C)C)on3)cc2)cn1 | 1.23 µM | 3.6 µM | – | – | – | – | – | –
30 | COc1cc2c(c(Br)c1N)-c1cc(Br)c(N)cc1C2=O | 3.07 µM | > 81 µM | – | – | – | – | – | –
31 | O=S(=O)(Nc1ccc2ccc3cccc4ccc1c2c34)c1ccccc1 | – | > 100 µM | – | – | – | – | – | –
32 | CC(=O)NNc1nc(C)c(C(/C=C/c2ccc3c(c2)OCO3)=N/NC(=O)c2ccncc2)s1 | – | > 100 µM | – | – | – | – | – | TGI (MDA-N): > 100 µM
33 | O=C(O)Cc1ccccc1 | > 1000 µM | > 2000 µM | – | – | – | – | – | GI50 (MDA-N): > 1 mM; TGI (MDA-N): > 2000 µM
34 | C/C=C(\C)C(=O)O[C@@H]1C=CC(=O)O[C@H]1COC(=O)[C@H](C)O | 13.7 µM | 29.1 µM | – | – | – | – | – | –
35 | CC1(C)CCC(CN2CCN(c3ccc(C(=O)NS(=O)(=O)c4ccc(NCC5CCOCC5)c([N+](=O)[O-])c4)c(Oc4cnc5[nH]ccc5c4)c3)CC2)=C(c2ccc(Cl)cc2)C1 | 1.78 µM | 4 µM | – | – | – | – | – | –
